# Test results from patent US20080194877A1, “Benzamidine Derivatives for Treatment and Prevention of Cancer Therapy Induced Mucositis” ([…].p.A., priority 2005, published 2008).
# Values joined by “and” are separate entries in the source; they are usually repeats but may differ in a detail not shown here. Equal values may be shown once. Read-outs that look alike come from different tables or passages of the source.
# Legend:
# [1] = 25° C.
# [2] = tested on: ROS generation in human PMNL; assay: Inhibition of luminol-dependent chemiluminescence (ROS generation) in PMA-activated human PMNL; assay type: cell-based; conditions: for IC50: 0.1 μM PMA
# Experimental: Background to the assay: One of the most important events involved in the intracellular cascade leading to NF-kB activation is the generation of oxidative stress and the increase of ROS; the inhibition of these species can contribute to reduce the direct damage to DNA and subsequent clonogenic cell death, and also to diminish the transcription factors activation. The effect of compound 1.1 on luminol-dependent chemiluminescence assay was assessed in human PMNL.
# Human neutrophils were obtained from healthy volunteers. Blood was anti-coagulated with Na-Citrate 0.38% and neutrophils were purified according to Boyum (Boyum A. Scand J Clin Invest 1968;21:77-89). The neutrophil purification was achieved by gradient centrifugation on Histo-paque at 400 g for 30 min. Resulting neutrophils were suspended in PBS plus 0.87 mM CaCl2, 1 mM MgCl2, counted, and diluted to 2.5×10^6/ml. Neutrophil suspension was premixed with luminol (5 μM final). A 200 μl-aliquot of cell suspension was incubated into a 96-well plate, with drugs for 10 min at 37° C. Neutrophils were activated with 0.1 μM phorbol 12-myristate 13-acetate (PMA) and the light emission was monitored at 3 min intervals for 24 min in a HTS7000 plus microplate reader. Results were expressed as reduction of the fluorescent signal recorded for cell activated with PMA alone.
# Activation of neutrophils with 0.1 μM PMA induced a time-dependent increase in signal luminescence, with a maximal increase within 10-12 min. […] The data are illustrated in FIG. 1.
# [3] = tested on: IL-1β; assay: LPS-induced IL-1β release in rat peritoneal macrophages; assay type: cell-based; conditions: LPS 1 μg/ml, 24 h
# Source text: (§1) Background to the assay: Nuclear factor-κB (NF-κB), a key element in the genesis of mucositis, has the capacity to upregulate a large panel of genes, including those that result in the production of pro-inflammatory cytokines, TNFα, IL-1 and IL-6, all leading to apoptosis and tissue injury, and to up-regulate genes that can cause the expression of iNOS and cyclooxygnase-2. The third phase of mucositis is indeed characterized by the amplification of signaling triggered by pro-inflammatory cytokines. The effect of compound 1.1 was assessed in rat peritoneal macrophages.
# (§2) Primary cell cultures were obtained from male albino rats (SD, 200-250 g, Harlan, Italy), as described in Methods in Enzymology (Methods in Enzymology, vol. LVIII, pages 494-506). Cells were stimulated, the day after plating, with LPS, 1 μg/ml or 0.1 μg/ml as stated, for 24 h. Compounds were added 20 min before stimulation. The stimulation was performed in DMEM, 1 g/l glucose, 50 μg/ml gentamicin. Supernatants and cell lysates were collected and stored at −80° C. until use. Cytokine quantisation in supernatants was determined by means of commercially available ELISA Kits for rat TNFα, rat IL-1β and rat IL-6 (Amersham).
# (§3) Activation of macrophages with 1 μg/ml LPS induced an increase over basal in cytokine production.
# [4] = tested on: IL-6; assay: LPS-induced IL-6 release in rat peritoneal macrophages; assay type: cell-based; conditions: LPS 1 μg/ml, 24 h
# Source text: as §1, §2, §3
# [5] = tested on: TNFα; assay: LPS-induced TNFα release in rat peritoneal macrophages; assay type: cell-based; conditions: LPS 1 μg/ml, 24 h
# Source text: as §1, §2, §3
# [6] = tested on: iNOs protein expression; assay: LPS-induced iNOS protein expression in rat macrophages (Western blot); assay type: cell-based; conditions: 30 μM; LPS 0.1 μg/ml, 24 h
# Experimental: as §2
# (§4) Western blot analysis of iNOS and COX-2: Cell lysates were analyzed by SDS-PAGE. Proteins were transferred onto PVDF membranes and saturated in blocking buffer. Membranes were incubated for 2 h at RT with the following antibodies: anti-COX-2, anti-iNOS, anti-β-actin and further incubated with a secondary antibody for 45 min at RT. Detection was performed using ECL (Amersham). Quantisation was determined by densitometry analysis using NIH Image software.
# (§5) Evaluation of mediator of inflammation such as iNOS and COX-2, was performed in macrophages stimulated with 0.1 μg/ml LPS for 24 h. […]
# [7] = tested on: COX-2 protein expression; assay: LPS-induced COX-2 protein expression in rat macrophages (Western blot); assay type: cell-based; conditions: 30 μM; LPS 0.1 μg/ml, 24 h
# Experimental: as §2, §4, §5
# [8] = tested on: rat gastric mucosa; assay: Gastric ulcer induced by indomethacin in rat; assay type: in vivo
# Source text: Indomethacin induces the formation of acute gastric mucosal lesions. The histologic damage is represented by necrosis with loss of surface epithelium, submucosal oedema and leukocyte infiltration. The mechanism involves a neutrophil-dependent process inducing a variety of inflammatory mediators such as reactive oxygen species, and direct detrimental action by indomethacin on processes linked to epithelial proliferation and apoptosis. The epithelial repairing process is due to continuity of epithelial cells with healthy cells of gastric pits that can migrate to the basement membrane; re-epithelialization and reconstruction of the mucosal architecture is under the control of growth factors produced locally by regenerating cells.
# 20 male SD rats (140-160) were used. The animals were deprived of food but not water 24 hours prior the experiment. Gastric ulcer was induced in conscious rats by oral administration of 10 mg/kg/4 ml of indomethacin, suspended in methylcellulose 0.5%. The tested drug was administered 30 min by gavage (os), or 15 min by subcutaneously (sc), before indomethacin.
# Four hours after indomethacin administration, the animals were sacrificed by excess of ether. The stomach was dissected out, opened along the greater curvature, and the mucosa was examined by an observer who was unaware of the treatment given. The extent of ulcers was measured with a 10× binocular fitted with a 0.1 mm-division scale. Data are presented as total length of ulcers per group.
# The animals were divided into 4 groups of 5 animals, and were treated as follows:
# Groups: • 1. 10 mg/kg Compound 1.1, administered prior to 10 mg/kg indomethacin, os. • 2. 5 mg/kg Compound 1.1, administered prior to 10 mg/kg indomethacin, os. • 3. 1 mg/kg Compound 1.1, administered prior to 10 mg/kg indomethacin, os. • 4. vehicle, administered prior to 10 mg/kg indomethacin, os.
# Compound 1.1 was given at 1, 5 and 10 mg/kg prior to indomethacin. […] In Compound 1.1 treated groups the levels of ulcerated animals decreased dose-dependently.
# [9] = tested on: clonogenic crypt cells of the small intestine; assay: Mouse mucositis model (clonogenic crypt cell death induced by whole body irradiation); assay type: in vivo; conditions: for crypt width (μm) / no. crypts/circumference: average +/− sd; for corrected crypts/circumference: corrected for crypt width
# Source text: There are thought to be between four and sixteen actual stem cells in each crypt of the small intestine. There are also a further reserve of clonogenic cells which are capable of regenerating the crypt when all the actual stem cells have been killed. The survival of these clonogenic cells is therefore key to the survival of the crypt and the restoration of an intact epithelial lining following cytotoxic injury (only one clonogenic cell needs to survive to ensure the survival of the crypt, and therefore the maintenance of an intact epithelium). Growth factors and other molecules can be used to manipulate the sensitivity of these cells to cytotoxic agents, and thereby reduce the severity of gastrointestinal and oral mucositis. Factors given prior to a cytotoxic insult may increase clonogenic cell number (thereby increasing the probability of clonogen survival) or act to arrest the cell cycle in such cells (thereby making them more resistant to damage or death). […] A combination of both protocols could give maximum protection to the epithelium.
# The effects of administration for 3 days before radiation exposure were tested.
# 30 adult male BDF1 mice (aged 10-12 weeks) were used. The animals were housed for 2 weeks in individually ventilated cages on a 12 hr light:dark cycle to stabilize the circadian rhythm. Animals were allowed food and water ad libitum throughout.
# The animals were divided into 5 groups of 6 animals, and were treated as follows:
# Groups: • 1. Gavage 20 mg/kg Compound 1.1 72, 48 and 24 hrs prior to 13Gy X-ray exposure (whole body). • 2. Gavage 10 mg/kg Compound 1.1 72, 48 and 24 hrs prior to 13Gy X-ray exposure (whole body). • 3. Gavage 5 mg/kg Compound 1.1 72, 48 and 24 hrs prior to 13Gy X-ray exposure (whole body). • 4. Gavage vehicle 72, 48 and 24 hrs prior to 13Gy X-ray exposure (whole body). • 5. Untreated, un-irradiated controls.
# Intestinal damage was induced using a single dose of 13Gy X-irradiation. Four days after irradiation the animals were sacrificed. The small intestine was removed and fixed in Carnoy's fixative prior to processing for histological analysis. 3 μm sections were cut and stained with haematoxylin and eosin. Foci of regeneration (surviving crypts with one or more clonogenic cells) were clearly visible in the irradiated sections. Other than these foci the mesenchyme was entirely denuded; these animals would develop diarrhea and die due to mucositis if allowed to live beyond four days.
# For each animal ten intestinal circumferences were analyzed (60 per group)—a circumference is equivalent to a given length of intestine and therefore a convenient baseline unit of length. The number of surviving crypts per circumference was scored and the average per group determined. Only crypts containing 10 or more strongly haematoxylin and eosin stained cells (excluding Paneth cells) and only intact circumferences not containing Peyers patches were scored (Peyers patches influence both the number of crypts in a normal circumference and the ability of a crypt to survive insult).
# The average crypt width (measured at its widest point) was also measured in order to correct for scoring errors due to crypt size difference. The correction is applied thus: Corrected number of crypts/circumference=
# [10] = 5 mg/kg, both administration protocols (os, sc)
# [11] = 5 mg/kg gavage for 3 days pre 13Gy irradiation
# [12] = 10 mg/kg gavage for 3 days pre 13Gy irradiation
# [13] = 20 mg/kg gavage for 3 days pre 13Gy irradiation
smiles,measurement,setting,value
"CCCCCNC(=S)Nc1ccc(NC(C)=N)cc1.O=C(O)/C=C\C(=O)O [Maleate, N-[4-(N-acetamidine)phenyl]-N′-pentyl thiourea maleate]",Solubility in water,[1],3.12 mg/mL
same,Solubility in water (%),[1],0.31%
"CCCCCNC(=S)Nc1ccc(NC(C)=N)cc1.CS(=O)(=O)O [Methanesulphonate, N-[4-(N-acetamidine)phenyl]-N′-pentyl thiourea methanesulphonate]",Solubility in water,[1],>32 mg/mL
same,Solubility in water (%),[1],>32%
"CCCCCNC(=S)Nc1ccc(NC(C)=N)cc1 [Compound 1.1, N-[4-(N-acetamidine)phenyl]-N′-pentyl thiourea]",% of inhibition of chemiluminescence,[2]; 1 μM,20%
same,Inhibition of ROS generation,[2]; 30 μM (data not shown),completely inhibited ROS generation
same,IC50,"[2]; rising phase, at 15 min, read-out: IC50 luminol-enhanced chemiluminescence, rising phase",6.4 ± 0.6 µM
same,IC50,"[2]; steady phase, at 24 min, read-out: IC50 luminol-enhanced chemiluminescence, steady phase",2.9 ± 0.2 µM
same,IC50,[3],30 µM
same,IC50,[4],63 µM
same,IC50,[5],54 µM
same,% of inhibition iNOs protein expression,[6],79%
same,% of inhibition COX-2 protein expression,[7],53%
same,Effectiveness against ulcer at the lower dose,[8]; 1 mg/kg,effective only in the os protocol administration
same,Reduction of extent of ulceration,[8]; 5 mg/kg,80-90%
same,Incidence of ulcer (animals per group),[8]; [10],3/5
same,Incidence of ulcer reduced to,[8]; [10],~50%
same,Ulcerated animals (maximal effect),[8]; 10 mg/kg prior to 10 mg/kg indomethacin,no animals ulcerated
same,Survival and adverse effects,"[8]; rat, 1, 5 and 10 mg/kg",no obvious adverse effects
same,crypt width (μm),[9]; [11],68.54 +/− 6.6 μm
same,no. crypts/circumference,[9]; [11],9.6 +/− 3.4
same,corrected crypts/circumference,[9]; [11],4.7 +/− 1.3
same,crypt width (μm),[9]; [12],68.25 +/− 2.4 μm
same,no. crypts/circumference,[9]; [12],9.2 +/− 4.7
same,corrected crypts/circumference,[9]; [12],4.5 +/− 2.4
same,Increase of crypt survival versus vehicle,[9]; 20 mg/kg,1.9 ×
same,crypt width (μm),[9]; [13],66.19 +/− 3.0 μm
same,no. crypts/circumference,[9]; [13],13.2 +/− 5.7
same,corrected crypts/circumference,[9]; [13],6.7±3.0 and 6.7 +/− 3.0
same,Circumferences without surviving crypt,"[9]; 20 mg/kg, 4% of circumference in vehicle treated mouse",prevented the absence of surviving crypt
same,Increase of crypt survival versus vehicle,[9]; lower doses (5 and 10 mg/kg),about 1.3 times
same,Survival and adverse effects,"[9]; mouse, 5, 10 and 20 mg/kg",no obvious adverse effects
